Marks after values point to notes of the source that are not given here.
Columns and labels:
[1] = test system: hyperglycemia KK-A^y mice; experiment: blood lipid and liver function of hyperglycemia KK-A^y mice; format: in vivo; conditions: 3 weeks
Description: Materials: accurately weigh the 2 compounds S13 and S28 discussed in example 2, and then add 0.5% CMC-Na to make the solution of 5 mg/ml used for activity test. KK-A^y mice are purchased from Chinese Academy of Medical Sciences & Peking Union Medical College Institute of Animal Studies. Experiments are carried out after adapting to the environment (T=20-24° C., constant humidity: 50-60%, 12 hours light exposure (8:00-20:00), soundproof, free feeding and drinking) for 1 week. Glucometer is purchased from Roche.
Methods: 10 male C57 mice of 6-8 weeks of 20-22 g are used as normal control group (1). Detect the fasting glucose of male KK-A^y mice, which are 6-8 weeks with the weight of 28-32 g, and divide them into different groups according to the blood sugar level and body weight: (2) model control group, (3) which is administered by compound S13 with the dose of 1 mg/kg, (4) which is administered by compound S13 with the dose of 5 mg/kg, (5) which is administered by compound S13 with the dose of 10 mg/kg, (6) which is administered by compound S13 with the dose of 20 mg/kg, (7) which is administered by compound S28 with the dose of 1 mg/kg, (8) which is administered by compound S28 with the dose of 5 mg/kg, (9) which is administered by compound S28 with the dose of 10 mg/kg, (10) which is administered by compound S28 with the dose of 20 mg/kg, (11) which is administered by metformin with the dose of 8 g/kg, (12) which is administered by compound S13 with the dose of 2.5 mg/kg and metformin with the dose of 4 g/kg, (13) which is administered by compound S13 with the dose of 5 mg/kg and metformin with the dose of 4 g/kg, (14) which is administered by compound S28 with the dose of 2.5 mg/kg and metformin with the dose of […], (15) which is administered by compound S28 with the dose of 5 mg/kg and metformin with the dose of […]. Each group has 8 mice, and is administrated successively for 3 weeks. Model control group is given with equal amounts of 0.5% CMC-Na.
4) After the last administration, the mice are executed under anesthesia, and blood is taken to be centrifuged at 3000 rpm in 4[…]. Serum total cholesterol, low density lipoprotein and triglyceride TG are detected.

[2] = target: T1, α-glucosidase (Saccharomyces cerevisiae, UniProt P53341); experiment: α-glucosidase inhibitory activity test in vitro; format: biochemical; conditions: read-out: α-glucosidase inhibitory activity (IC50)
T1 construct: purchased Sigma Corporation G5003
T1 sequence (P53341 whole entry): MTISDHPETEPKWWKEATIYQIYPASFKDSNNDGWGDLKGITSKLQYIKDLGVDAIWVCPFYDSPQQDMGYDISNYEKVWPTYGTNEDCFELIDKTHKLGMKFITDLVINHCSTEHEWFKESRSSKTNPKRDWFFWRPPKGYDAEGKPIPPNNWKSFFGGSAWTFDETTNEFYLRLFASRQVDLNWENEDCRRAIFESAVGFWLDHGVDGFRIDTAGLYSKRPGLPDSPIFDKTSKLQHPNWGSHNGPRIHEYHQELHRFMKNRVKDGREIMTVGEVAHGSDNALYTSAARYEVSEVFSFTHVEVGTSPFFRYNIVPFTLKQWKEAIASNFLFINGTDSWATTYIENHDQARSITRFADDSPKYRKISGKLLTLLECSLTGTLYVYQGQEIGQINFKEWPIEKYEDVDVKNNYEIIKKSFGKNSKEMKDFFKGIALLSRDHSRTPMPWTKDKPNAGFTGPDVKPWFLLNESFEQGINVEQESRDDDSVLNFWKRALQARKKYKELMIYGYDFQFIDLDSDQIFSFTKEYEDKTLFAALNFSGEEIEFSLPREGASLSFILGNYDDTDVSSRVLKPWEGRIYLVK

[3] = test system: hyperglycemia mice induced by alloxan; experiment: blood sugar of hyperglycemia mice induced by alloxan; format: in vivo, Kunming species mice; conditions: for effect on blood sugar level of hyperglycemic mice (in words): 50 mg/kg
Description: Blood glucose determination kit (batch number 20140403) is purchased from Nanjing Jiancheng Bioengineering Institute. Methods: after being acclimatized for 1 week, 10 randomly selected Kunming species male mice of SPF level of 20±2 g are used as control group, while the other 50 mice are given alloxan to make model by intraperitoneal injection according to body weight 220 mg/kg.

[4] = target: T2, protein tyrosine phosphatase 1B (PTP-1B) (Homo sapiens, UniProt P18031); experiment: PTP-1B inhibitory activity test in vitro; format: biochemical
T2 sequence (P18031 1-435): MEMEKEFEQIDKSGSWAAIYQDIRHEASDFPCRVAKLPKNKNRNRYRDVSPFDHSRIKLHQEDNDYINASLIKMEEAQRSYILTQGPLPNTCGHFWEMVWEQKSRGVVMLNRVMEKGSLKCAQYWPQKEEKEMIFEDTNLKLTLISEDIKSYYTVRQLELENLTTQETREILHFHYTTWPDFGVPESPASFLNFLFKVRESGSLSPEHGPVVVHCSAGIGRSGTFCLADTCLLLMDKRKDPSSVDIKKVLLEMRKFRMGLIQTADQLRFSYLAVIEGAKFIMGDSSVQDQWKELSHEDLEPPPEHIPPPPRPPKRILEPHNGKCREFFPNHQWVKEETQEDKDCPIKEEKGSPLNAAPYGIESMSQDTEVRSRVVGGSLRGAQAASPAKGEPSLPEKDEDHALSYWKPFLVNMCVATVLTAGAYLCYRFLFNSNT
Outline: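 Compound was preincubated 10 min at room temperature with 170 μg/mL PTP-1B solution, then 1 mM pNPP substrate was added and incubated 37 °C for 30 min. Reaction stopped with 3M NaOH; absorbance read at […], with blank and compound-background controls.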

SMILES	ALT ([1]; 1 mg/kg, groups 3, 7)	AST ([1]; 1 mg/kg, groups 3, 7)	HDL-C ([1]; 1 mg/kg, groups 3, 7) [mg/dL]	LDL-C ([1]; 1 mg/kg, groups 3, 7)	SOD ([1]; 1 mg/kg, groups 3, 7)	TC ([1]; 1 mg/kg, groups 3, 7)	TG ([1]; 1 mg/kg, groups 3, 7)	ALT ([1]; 5 mg/kg, groups 4, 8)	AST ([1]; 5 mg/kg, groups 4, 8)	HDL-C ([1]; 5 mg/kg, groups 4, 8) [mg/dL]	LDL-C ([1]; 5 mg/kg, groups 4, 8)	SOD ([1]; 5 mg/kg, groups 4, 8)	TC ([1]; 5 mg/kg, groups 4, 8)	TG ([1]; 5 mg/kg, groups 4, 8)	ALT ([1]; 10 mg/kg, groups 5, 9)	AST ([1]; 10 mg/kg, groups 5, 9)	HDL-C ([1]; 10 mg/kg, groups 5, 9) [mg/dL]	LDL-C ([1]; 10 mg/kg, groups 5, 9)	SOD ([1]; 10 mg/kg, groups 5, 9)	TC ([1]; 10 mg/kg, groups 5, 9)	further results
CC(C)=CCC/C(C)=C/CCC1=C[C@H](c2cc(O)ccc2O)OC1=O [S13, (R,E)-5-(2,5-dihydroxyphenyl)-3-(4,8-dimethylnona-3,7-dien-1-yl)furan-2(5H)-one]	72.1** U/L	56.2** U/L	22.4	64* mg/dL	5.01** U/L	132** mg/dL	328** mg/dL	72.8** U/L	63.5** U/L	22.4	64** mg/dL	4.24* U/L	134** mg/dL	310** mg/dL	67.1** U/L	60.8** U/L	22.5	64** mg/dL	4.11** U/L	131** mg/dL	TG ([1]; 10 mg/kg, groups 5, 9): 327** mg/dL; ALT ([1]; 20 mg/kg, groups 6, 10): 61.2** U/L; AST ([1]; 20 mg/kg, groups 6, 10): 60.5** U/L; HDL-C ([1]; 20 mg/kg, groups 6, 10): 22.1 mg/dL; LDL-C ([1]; 20 mg/kg, groups 6, 10): 53** mg/dL; SOD ([1]; 20 mg/kg, groups 6, 10): 4.52** U/L; TC ([1]; 20 mg/kg, groups 6, 10): 125** mg/dL; TG ([1]; 20 mg/kg, groups 6, 10): 310** mg/dL; IC50 [2]: 0.27 µM; blood sugar after administration ([3]; 50 mg/kg intragastric, 10 days, fasted 10 hours): 5.11** mmol/L; effect on blood sugar level of hyperglycemic mice (in words) ([3]; 10 days): significantly decrease the blood sugar level of hyperglycemic mice; blood sugar before administration ([3]; before administration): 14.50 mmol/L; IC50 [4]: 8.9 µM
CC(C)=CCC/C(C)=C/CCC1=C[C@@H](c2cc(O)ccc2O)OC1=O [S28, (S,E)-5-(2,5-dihydroxyphenyl)-3-(4,8-dimethylnona-3,7-dien-1-yl)furan-2(5H)-one]	72.5** U/L	56.5** U/L	22.1	64** mg/dL	5.12** U/L	134** mg/dL	325** mg/dL	71.2** U/L	63.6** U/L	22.3	69* mg/dL	4.25* U/L	134** mg/dL	312** mg/dL	62.5** U/L	60.6** U/L	22.5	69* mg/dL	4.12* U/L	135** mg/dL	TG ([1]; 10 mg/kg, groups 5, 9): 331** mg/dL; ALT ([1]; 20 mg/kg, groups 6, 10): 61.5** U/L; AST ([1]; 20 mg/kg, groups 6, 10): 60.6** U/L; HDL-C ([1]; 20 mg/kg, groups 6, 10): 22.4 mg/dL; LDL-C ([1]; 20 mg/kg, groups 6, 10): 54** mg/dL; SOD ([1]; 20 mg/kg, groups 6, 10): 4.34* U/L; TC ([1]; 20 mg/kg, groups 6, 10): 123** mg/dL; TG ([1]; 20 mg/kg, groups 6, 10): 312** mg/dL; IC50 [2]: 0.42 µM; effect on blood sugar level of hyperglycemic mice (in words) ([3]; 10 days): significantly decrease the blood sugar level of hyperglycemic mice; IC50 [4]: 9.5 µM
